# From ChEMBL document CHEMBL4033675, “Identification of novel 1,2,3,6-tetrahydropyridyl-substituted benzo[d]thiazoles: Lead generation and optimization toward potent and orally active EP1 receptor antagonists” (Bioorg Med Chem, 2017)
# Activity calls are given as the source filed them. The rule behind the calls is not given here.
# System: not listed separately
# Assay: Chemical stability of the compound in pH 1 acidic aqueous medium
# Assay type: physicochemical
# Conditions: buffer
row,Stability,SMILES
1,Stable,Cc1cc(C(=O)O)nn1Cc1cc(Cl)cc2sc(N3CC=CCC3)nc12

# System: not listed separately
# Assay: Half life in rat at 1 mg/kg, iv
# Assay type: ADME, organism-based
# Conditions: in vivo
row,half-life,SMILES
1,40.7 min,Cc1cc(C(=O)O)nn1Cc1cc(Cl)cc2sc(N3CC=CCC3)nc12

# System: not listed separately
# Assay: Total clearance in rat at 1 mg/kg, iv
# Assay type: ADME, organism-based
# Conditions: in vivo
row,clearance,SMILES
1,3.79 mL/min/kg,Cc1cc(C(=O)O)nn1Cc1cc(Cl)cc2sc(N3CC=CCC3)nc12

# Target: T1, Prostaglandin E2 receptor EP1 subtype (Rattus norvegicus, UniProt P70597)
# T1 sequence (P70597 whole entry): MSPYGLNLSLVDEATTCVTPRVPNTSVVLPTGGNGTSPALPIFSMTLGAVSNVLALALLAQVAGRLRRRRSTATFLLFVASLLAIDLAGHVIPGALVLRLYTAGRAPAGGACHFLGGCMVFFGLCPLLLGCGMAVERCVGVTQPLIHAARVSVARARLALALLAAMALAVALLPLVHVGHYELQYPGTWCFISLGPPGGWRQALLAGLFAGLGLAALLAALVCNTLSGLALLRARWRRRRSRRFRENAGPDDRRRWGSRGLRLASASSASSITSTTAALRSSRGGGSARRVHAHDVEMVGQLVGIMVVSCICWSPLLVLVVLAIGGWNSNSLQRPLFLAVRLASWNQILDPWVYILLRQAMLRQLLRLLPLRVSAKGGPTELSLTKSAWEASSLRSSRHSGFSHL
# Assay: Antagonist activity at rat EP1 receptor expressed in African green monkey COS1 cells assessed as inhibition of prostaglandin-E2-induced increase in intracellular calcium level preincubated for 60 secs followed by prostaglandin-E2 addition measured for 60 secs by Fluo 4-AM dye based fluorescence assay
# Assay type: functional, cell-based
# Conditions: not given
row,SMILES,IC50
1,Cc1cc(C(=O)O)nn1Cc1cc(Cl)cc2sc(N3CCOCC3)nc12,0.063 µM
2,Cc1cc(C(=O)O)nn1Cc1cc(Cl)cc2sc(N3CCC3)nc12,0.32 µM
3,Cc1cc(C(=O)O)nn1Cc1cc(Cl)cc2sc(-c3ccccc3)nc12,0.031 µM
4,CCN(C)c1nc2c(Cn3nc(C(=O)O)cc3C)cc(Cl)cc2s1,0.013 µM
5,Cc1cc(C(=O)O)nn1Cc1cc(Cl)cc2sc(C3=CCCCC3)nc12,0.11 µM
6,CCCN(CC)c1nc2c(Cn3nc(C(=O)O)cc3C)cc(Cl)cc2s1,0.27 µM
7,CNc1nc2c(Cn3nc(C(=O)O)cc3C)cc(Cl)cc2s1,0.47 µM
8,CC1=C(C)CN(c2nc3c(Cn4nc(C(=O)O)cc4C)cc(Cl)cc3s2)CC1,5.2 µM
9,Cc1cc(C(=O)O)nn1Cc1cc(Cl)cc2sc(N(C)C)nc12,0.1 µM
10,O=C(O)c1ccn(Cc2cc(Cl)cc3sc(N4CC=CCC4)nc23)c1,0.24 µM
11,O=C(O)c1ccc(Sc2cc(Cl)cc3sc(N4CC=CCC4)nc23)o1,0.0064 µM
12,Cc1cc(C(=O)O)nn1Cc1cc(Cl)cc2sc(N3CCSCC3)nc12,0.066 µM
13,O=C(O)c1ccn(Cc2cc(Cl)cc3sc(N4CC=CCC4)nc23)n1,0.051 µM
14,Cc1cc(C(=O)O)nn1Cc1cc(Cl)cc2sc(C3CCCCC3)nc12,0.43 µM
15,Cc1cc(C(=O)O)nn1Cc1cc(Cl)cc2nc(-c3ccccc3)sc12,7.95 µM
16,Cc1cc(C(=O)O)nn1Cc1cc(Cl)cc2sc(N3CCS(=O)(=O)CC3)nc12,4.2 µM
17,O=C(O)c1ccc(Oc2cc(Cl)cc3sc(N4CC=CCC4)nc23)o1,0.15 µM
18,Cc1cc(C(=O)O)nn1Cc1cc(Cl)cc2sc(N3CCCCCC3)nc12,0.27 µM
19,Cc1cc(C(=O)O)nn1Cc1cc(Cl)cc2sc(N3CCCC3)nc12,0.03 µM
20,Cc1cc(C(=O)O)nn1Cc1cc(Cl)cc2sc(N3CCCCC3)nc12,0.043 µM
21,CCN(CC)c1nc2c(Cn3nc(C(=O)O)cc3C)cc(Cl)cc2s1,0.0062 µM
22,O=C(O)c1ccc(Cc2cc(Cl)cc3sc(N4CC=CCC4)nc23)o1,0.06 µM
23,CC1=CCCN(c2nc3c(Cn4nc(C(=O)O)cc4C)cc(Cl)cc3s2)C1,0.03 µM
24,Cc1cc(C(=O)O)nn1Cc1cc(Cl)cc2sc(N3CCN(C)CC3)nc12,4.9 µM
25,Cc1cc(C(=O)O)nn1Cc1cc(Cl)cc2nc(-c3ccccc3)oc12,0.75 µM
26,C=C(C)c1nc2c(Cn3nc(C(=O)O)cc3C)cc(Cl)cc2s1,0.033 µM
27,Cc1cc(C(=O)O)nn1Cc1cc(Cl)cc2oc(-c3ccccc3)nc12,8.7 µM

# Second part, the compound after the results:
row,IC50,SMILES
1,0.022 µM,Cc1cc(C(=O)O)nn1Cc1cc(Br)cc2sc(N3CC=CCC3)nc12
2,0.11 µM,Cc1cc(C(=O)O)nn1Cc1cc(Cl)cc2sc(N3CC=CC3)nc12
3,7.9 µM,Cc1cc(C(=O)O)nn1Cc1cc(C(=O)O)cc2sc(N3CC=CCC3)nc12
4,8.8 µM,CNc1cc(Cn2nc(C(=O)O)cc2C)c2nc(N3CC=CCC3)sc2c1
5,0.21 µM,Cc1cc(C(=O)O)nn1Cc1cc(N(C)C)cc2sc(N3CC=CCC3)nc12
6,0.064 µM,CC1=CCN(c2nc3c(Cn4nc(C(=O)O)cc4C)cc(Cl)cc3s2)CC1
7,0.16 µM,C=C(C)c1cc(Cn2nc(C(=O)O)cc2C)c2nc(N3CC=CCC3)sc2c1
8,0.032 µM,Cc1cc(C(=O)O)nn1Cc1cccc2sc(N3CC=CCC3)nc12
9,2.5 µM,Cc1cc(Cn2nc(C(=O)O)cc2C)c2nc(N3CC=CCC3)sc2c1
10,0.037 µM,COc1cc(Cn2nc(C(=O)O)cc2C)c2nc(N3CC=CCC3)sc2c1
11,0.2 µM,CC(=O)c1cc(Cn2nc(C(=O)O)cc2C)c2nc(N3CC=CCC3)sc2c1
12,7.8 µM,Cc1cc(C(=O)O)nn1Cc1cc(N)cc2sc(N3CC=CCC3)nc12
13,0.23 µM,Cc1cc(C(=O)O)nn1Cc1cc(C#N)cc2sc(N3CC=CCC3)nc12
14,0.0011 µM,Cc1cc(C(=O)O)nn1Cc1cc(Cl)cc2sc(N3CC=CCC3)nc12
15,0.017 µM,Cc1cc(C(=O)O)nn1Cc1cc(F)cc2sc(N3CC=CCC3)nc12
16,0.0099 µM,C=Cc1cc(Cn2nc(C(=O)O)cc2C)c2nc(N3CC=CCC3)sc2c1
17,0.097 µM,Cc1cc(C(=O)O)nn1Cc1cc(OC(F)(F)F)cc2sc(N3CC=CCC3)nc12

# System: not listed separately
# Assay: AUC (0 to infinity) in rat at 1 mg/kg, iv
# Assay type: ADME, organism-based
# Design: dose 1 mg/kg, time infinity, route intravenous
# Conditions: in vivo
row,AUC(0-inf),SMILES
1,4480 ng·h/mL,Cc1cc(C(=O)O)nn1Cc1cc(Cl)cc2sc(N3CC=CCC3)nc12

# System: Rattus norvegicus
# Assay: Inhibition of 17-PTP-induced increase in intravesical pressure in intraduodenally dosed rat overactive bladder model pretreated for 5 mins followed by 17-PTP treatment with 30 mins time interval for 245 mins
# Assay type: functional, organism-based
# Conditions: not given
row,SMILES,inhibition
1,Cc1cc(C(=O)O)nn1Cc1cc(Cl)cc2sc(-c3ccccc3)nc12,inactive
2,Cc1cc(C(=O)O)nn1Cc1cc(Cl)cc2sc(N3CC=CCC3)nc12,Dose-dependent effect

# System: not listed separately
# Assay: Initial concentration in rat at 1 mg/kg, iv
# Assay type: ADME, organism-based
# Conditions: in vivo
row,C0,SMILES
1,6000 ng/mL,Cc1cc(C(=O)O)nn1Cc1cc(Cl)cc2sc(N3CC=CCC3)nc12

# System: not listed separately
# Assay: Volume of distribution in rat at 1 mg/kg, iv
# Assay type: ADME, organism-based
# Conditions: in vivo
row,Vd,SMILES
1,0.184 L/kg,Cc1cc(C(=O)O)nn1Cc1cc(Cl)cc2sc(N3CC=CCC3)nc12
